Laboratory results as given in publication PMC2719696, “Kinetics and Cellular Site of Glycolipid Loading Control the Outcome of Natural Killer T Cell Activation” (Immunity, 2009).

Key:
murine iNKT cell TCRs = assay: Equilibrium binding of glycolipid-loaded mCD1d tetramers to murine iNKT cells; set-up: species or system mouse; details: tetramer staining of murine iNKT cells
Procedure: The interactions of iNKT cell TCRs with CD1d molecules loaded with αGalCer analogs were analyzed with fluorescent murine and human CD1d tetramers. […] Equilibrium binding studies for measuring TCR avidities were carried out by incubation of human or murine iNKT cells with varying concentrations of αGalCer-analog-loaded tetramers and determining relative levels of cell-associated fluorescence ([Stanic et al., 2003; Yu et al., 2005]).
Figure 2 Characterization of iNKT Cell TCR Interactions with αGalCer Analogs (A) Flow cytometry analysis of human and murine iNKT cells with αGalCer analog-CD1d tetramers. In the top row, murine iNKT cells from C57BL/6 splenocytes were costained with αGalCer analog-loaded or unloaded mCD1d tetramers conjugated with PE (x axis) and αGalCer-C26:0-loaded-mCD1d tetramers conjugated with APC (y axis). In the bottom row, human PBMCs were similarly costained with human glycolipid-loaded CD1d tetramers. (B) Binding avidity of glycolipid-mCD1d complexes to murine iNKT cell TCRs. Histograms at left show tetramer staining of NK1.1^+ CD3^+ T cells in C57BL/6 splenocytes with glycolipid-loaded tetramers at 20 nM. […]
Recombinant CD1d proteins were produced and assembled into tetramers for staining as previously described ([Forestier et al., 2007]). […] All samples were analyzed with the FACSCalibur flow cytometer (BD Biosciences).

mCD1d = biological target: T1, mCD1d (Mus musculus, UniProt P11609); assay: mAb L363 staining of αGalCer-mCD1d complexes on cultured mouse splenocytes; format: cell-based; details: 100 nM glycolipid, 1 hr or 19 hr
T1 construct: host or cells: JAWS II (C57BL/6.Trp53-/- derived dendritic cell line)
T1 sequence (P11609 22-336): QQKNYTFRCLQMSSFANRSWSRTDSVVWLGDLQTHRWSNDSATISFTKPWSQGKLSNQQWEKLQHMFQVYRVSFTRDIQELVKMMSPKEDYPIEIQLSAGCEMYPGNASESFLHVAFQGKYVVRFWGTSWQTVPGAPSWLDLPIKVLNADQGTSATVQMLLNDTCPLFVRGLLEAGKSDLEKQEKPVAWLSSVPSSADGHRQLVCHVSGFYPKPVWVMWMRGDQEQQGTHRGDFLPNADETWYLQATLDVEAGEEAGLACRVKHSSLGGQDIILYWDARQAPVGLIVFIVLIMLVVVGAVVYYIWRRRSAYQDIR
T1 sequence (P01887 21-119 partner): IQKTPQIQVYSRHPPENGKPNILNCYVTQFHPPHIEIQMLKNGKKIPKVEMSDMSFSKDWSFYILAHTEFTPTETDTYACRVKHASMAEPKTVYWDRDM
Procedure: We studied this possibility directly by using a monoclonal antibody (L363) that specifically recognizes complexes of αGalCer bound to mCD1d ([Yu et al., 2007]). Mouse splenocytes were cultured with either αGalCer-C26:0 or representative Th2 cell-type cytokine-biasing analogs, and L363 staining was assessed on various cell types (Figure 3A). […] This was investigated further with more detailed kinetic studies in which immortalized mouse DC line JAWS II was cultured with each glycolipid and assessed for L363 surface staining at 0.5, 4, and 18 hr (Figure 3B). […]
Figure 3 Direct Analysis of Presentation of αGalCer Analogs with Complex-Specific mAb Staining (A) Mouse splenocytes cultured with either vehicle only (0.02% DMSO) or with the indicated αGalCer analogs (100 nM) were harvested after 1 hr or 19 hr of incubation and stained with mAb L363 or anti-CD1d mAb 1B1 and with mAbs specific for CD11c, CD19, and F4/80 (Figure S4). […] (B) JAWS II cells were incubated with glycolipids (250 nM) for various times ranging from 0.5–18 hr as indicated, stained with mAb L363, and analyzed by flow cytometry. […]
Recombinant CD1d proteins were produced and assembled into tetramers for staining as previously described ([Forestier et al., 2007]). […] All samples were analyzed with the FACSCalibur flow cytometer (BD Biosciences). […]

`CCCCCCCCCCCCCCCCCCCCCCCC(=O)NC(COC1OC(CO)C(O)C(O)C1O)C(O)C(O)CCCCC` (centres unmarked) [OCH] was tested, and the “TCR avidity of glycolipid-mCD1d complexes” value (murine iNKT cell TCRs) was “weak binding”.

`CCCCCCCCCCCCCCC(O)C(O)C(COC1OC(CO)C(O)C(O)C1O)NC(=O)CCCCCCCCC` (centres unmarked) [αGalCer-C10:0] was tested, and the “L363 staining of splenocyte populations” value (mCD1d) was “extremely early appearance of L363 staining”.
